Experiments:
[1] = biological target: T1, EGFR L858R/T790M/C797S (H1975-clone #25) (Homo sapiens, UniProt P00533, C797S/L858R/T790M); assay: EGFR degradation, HTRF total-EGFR assay, H1975-clone #25 (LTC); format: cell-based; details: H1975-clone #25 L858R/T790M/C797S, 16 h treatment
T1 construct: expressed in transfected cells; host or cells: H1975 (clone #25), lentiviral transduction, endogenous EGFR knocked out
Excerpt: (§1) H1975-clone #28 (Del19/T790M/C797S, or abbr: DTC), H1975-clone #23 (Del19/C797S, or abbr: DC), H1975-clone #25 (L858R/T790M/C797S, or abbr: LTC) and H1975-clone #8 (L858R/C797S, or abbr: LC). EGFR-Del19/T790M/C797S, EGFR-Del19/C797S, EGFR-L858R/T790M/C797S and EGFR-L858R/C797S were stably expressed in H1975 cell lines by lentivirus-mediated over-expression, respectively. The EGFR over-expressed cells then underwent knockout, in which the EGFR targeting sgRNA was designed to only target the endogenous EGFR copies and preserve the exogenous EGFR copies. Followed by the knockout, the edited H1975 cells were seeded in 96 well plates at the concentration of 1 cell/well, cultured for about 2 weeks to allow single clones formation. The formed clones were screened by DNA sequencing and whole exon sequencing analysis for the desired edition. H1975-clone #28, H1975-clone #23, H1975-clone #25 and H1975-clone #8 were finally confirmed as homozygous Del19/T790M/C797S EGFR, Del19/C797S EGFR, L858R/T790M/C797S EGFR and L858R/C797S EGFR clones, respectively.
(§2) H1975-#25, H1975-#28, H1975-#23 and H1975-#8 cells are treated with compounds diluted in 0.2% DMSO cell culture medium on day 2, incubate for 16 h, 37° C., 5% CO2. The final concentration of compounds in all assay is start with 10 μM, 5-fold dilution, total 8 doses were included.
(§3) Total-EGFR cellular kit(64NG1PEH) were used for evaluating EGFR degradation.
(§4) After 16 h treatment, add HTRF lysis buffer to each well; seal the plate and incubate 1 hour at room temperature on a plate shaker; Once the cells are lysed, 16 μL of cell lysate are transferred to a PE 384-well HTRF detection plate; 4 μL of pre-mixed HTRF antibodies are added to each well; cover the plate with a plate sealer, spin 1000 rpm for 1 min, incubate overnight at room temperature; read on BMG PheraStar with HTRF protocol (337 nm-665 nm-620 nm).
(§5) The inhibition (degradation) percentage of the compound was calculated by the following equation:
(§6) Inhibition percentage of Compound=100−100×(Signal−low control)/(High control−low control), wherein signal=each test compound group
(§7) High control=Cell group with added DMSO and without compound, indicating microplate readings without EGFR degradation.
(§8) Imax (Dmax) is the maximum percentage of inhibition (degradation).
(§9) The IC50 (DC50) value of a compound can be obtained by fitting the following equation
(§10) Wherein, X and Y are known values, and IC50, Hillslope, Top and Bottom are the parameters obtained by fitting with software. Y is the inhibition percentage (calculated from the equation), X is the concentration of the compound; IC50 is the concentration of the compound when the 50% inhibition is reached. The smaller the IC50 value is, the stronger the inhibitory ability of the compound is. Vice versa, the higher the IC50 value is, the weaker the ability the inhibitory ability of the compound is; Hillslope represents the slope of the fitted curve, generally around 1*; Bottom represents the minimum value of the curve obtained by data fitting, which is generally 0%±20%; Top represents the maximum value of the curve obtained by data fitting, which is generally 100%±20%. The experimental data were fitted by calculating and analyzing with Dotmatics data analysis software.

[2] = biological target: EGFR Del19/T790M/C797S (H1975-clone #28) (Homo sapiens, UniProt P00533, T790M/C797S, form not given); assay: EGFR degradation, HTRF total-EGFR assay, H1975-clone #28 (DTC); format: cell-based; details: H1975-clone #28 Del19/T790M/C797S, 16 h treatment
Excerpt: as §1, §2, §3, §4, §5, §6, §7, §8, §9, §10

T1 sequence (P00533 25-1210 T790M/C797S/L858R): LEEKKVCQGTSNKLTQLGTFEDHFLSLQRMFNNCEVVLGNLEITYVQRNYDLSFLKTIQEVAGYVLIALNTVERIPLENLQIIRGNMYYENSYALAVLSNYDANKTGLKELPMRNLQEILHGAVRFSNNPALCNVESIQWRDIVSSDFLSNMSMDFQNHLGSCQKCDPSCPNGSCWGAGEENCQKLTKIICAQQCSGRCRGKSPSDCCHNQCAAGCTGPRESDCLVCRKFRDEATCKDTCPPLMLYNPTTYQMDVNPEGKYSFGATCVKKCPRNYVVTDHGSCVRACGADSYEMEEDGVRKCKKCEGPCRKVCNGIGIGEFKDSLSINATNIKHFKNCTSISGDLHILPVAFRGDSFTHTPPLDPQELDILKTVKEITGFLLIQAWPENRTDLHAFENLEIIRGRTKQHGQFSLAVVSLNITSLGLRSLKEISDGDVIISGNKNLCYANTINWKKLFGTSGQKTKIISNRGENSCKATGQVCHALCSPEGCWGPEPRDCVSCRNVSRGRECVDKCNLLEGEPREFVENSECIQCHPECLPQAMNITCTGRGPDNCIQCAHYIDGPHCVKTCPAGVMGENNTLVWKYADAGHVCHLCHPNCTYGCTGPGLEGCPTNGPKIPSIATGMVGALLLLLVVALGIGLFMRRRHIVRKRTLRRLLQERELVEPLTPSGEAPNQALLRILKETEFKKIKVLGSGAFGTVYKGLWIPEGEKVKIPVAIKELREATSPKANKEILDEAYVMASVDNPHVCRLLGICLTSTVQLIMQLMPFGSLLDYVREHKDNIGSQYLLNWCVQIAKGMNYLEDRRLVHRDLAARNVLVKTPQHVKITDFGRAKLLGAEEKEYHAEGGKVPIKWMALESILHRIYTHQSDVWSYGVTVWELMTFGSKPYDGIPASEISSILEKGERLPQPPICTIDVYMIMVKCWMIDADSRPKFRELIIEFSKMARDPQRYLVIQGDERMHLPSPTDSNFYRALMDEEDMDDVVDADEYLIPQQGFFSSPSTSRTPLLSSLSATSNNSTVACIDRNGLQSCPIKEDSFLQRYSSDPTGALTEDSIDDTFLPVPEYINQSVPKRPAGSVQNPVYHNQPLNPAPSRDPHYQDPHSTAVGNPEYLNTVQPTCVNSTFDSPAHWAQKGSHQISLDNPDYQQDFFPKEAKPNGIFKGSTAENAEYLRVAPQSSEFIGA
Chain of EGFR Del19/T790M/C797S (H1975-clone #28) (P00533 with tags, fused parts or gaps DEL746-750/T790M/C797S, form open): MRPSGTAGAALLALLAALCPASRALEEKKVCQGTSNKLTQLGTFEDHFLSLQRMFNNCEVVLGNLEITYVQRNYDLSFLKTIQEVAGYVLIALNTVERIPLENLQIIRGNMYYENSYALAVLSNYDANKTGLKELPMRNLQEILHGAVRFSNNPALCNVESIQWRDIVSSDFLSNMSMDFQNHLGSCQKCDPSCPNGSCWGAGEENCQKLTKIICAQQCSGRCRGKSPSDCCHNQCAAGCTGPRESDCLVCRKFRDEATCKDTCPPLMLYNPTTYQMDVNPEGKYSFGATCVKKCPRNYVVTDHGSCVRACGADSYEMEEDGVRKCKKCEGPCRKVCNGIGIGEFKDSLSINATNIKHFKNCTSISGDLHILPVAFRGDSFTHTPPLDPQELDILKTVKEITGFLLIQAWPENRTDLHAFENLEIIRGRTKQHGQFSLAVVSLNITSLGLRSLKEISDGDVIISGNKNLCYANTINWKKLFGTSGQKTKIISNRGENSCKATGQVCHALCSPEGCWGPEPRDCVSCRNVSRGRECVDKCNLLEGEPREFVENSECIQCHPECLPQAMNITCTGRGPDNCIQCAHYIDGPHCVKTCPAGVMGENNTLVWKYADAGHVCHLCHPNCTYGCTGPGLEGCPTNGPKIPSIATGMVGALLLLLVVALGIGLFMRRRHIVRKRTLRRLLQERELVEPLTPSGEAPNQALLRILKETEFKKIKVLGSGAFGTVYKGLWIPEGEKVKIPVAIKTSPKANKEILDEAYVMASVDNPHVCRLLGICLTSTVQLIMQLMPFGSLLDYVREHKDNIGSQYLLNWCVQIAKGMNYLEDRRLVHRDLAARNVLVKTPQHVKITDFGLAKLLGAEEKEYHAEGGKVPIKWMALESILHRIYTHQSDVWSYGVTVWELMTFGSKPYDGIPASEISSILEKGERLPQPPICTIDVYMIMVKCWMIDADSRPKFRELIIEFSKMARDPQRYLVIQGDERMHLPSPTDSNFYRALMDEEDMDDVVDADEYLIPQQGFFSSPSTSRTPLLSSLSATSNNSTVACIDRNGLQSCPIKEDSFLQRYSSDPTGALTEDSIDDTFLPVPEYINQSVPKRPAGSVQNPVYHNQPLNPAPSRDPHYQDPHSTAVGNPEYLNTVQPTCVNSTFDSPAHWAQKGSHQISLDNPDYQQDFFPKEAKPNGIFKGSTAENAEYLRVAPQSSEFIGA

Row | SMILES | Degradation H1975 # 25-LTC [1] | Degradation H1975 # 28 DTC [2]
1 | COC[C@@H]1CN(c2ccc3c(c2)N2C[C@H]4C[C@@H](COc5c(cnn5C)-c5cc(cc(C)n5)C(=O)/N=C/2N3)C4)CCN1C1CCN(c2cc(F)c([C@H]3CCC(=O)NC3=O)c(F)c2)CC1 [Example 20, (R)-3-(4-(4-((S)-4-((7^1s,7^3R,E)-1^1,2^6-dimethyl-3-oxo-5^2,5^3-dihydro-1^1H,5^1H-9-oxa-4-aza-5(2,1)-benzo[d]imidazola-2(2,4)-pyridina-1(4,5)-pyrazola-7(1,3)-cyclobutanacyclononaphane-5^6-yl)-2-(methoxymethyl)piperazin-1-yl)piperidin-1-yl)-2,6-difluorophenyl)piperidine-2,6-dione] | 92.5 | 89.8
2 | Cc1cc2cc(n1)-c1cnn(C)c1OC[C@H]1C[C@@H](CN3/C(=N/C2=O)Nc2ccc(N4CCN(C5CCN(c6ccc(C7CCC(=O)NC7=O)nc6C)CC5)CC4)cc23)C1 (stereo partly shown) [Example 21, 3-(5-(4-(4-((7^1s,7^3s,E)-1^1,2^6-dimethyl-3-oxo-5^2,5^3-dihydro-1H,5^1H-9-oxa-4-aza-5(2,1)-benzo[d]imidazola-2(2,4)-pyridina-1(4,5)-pyrazola-7(1,3)-cyclobutanacyclononaphane-5^6-yl)piperazin-1-yl)piperidin-1-yl)-6-methylpyridin-2-yl)piperidine-2,6-dione] | 94.0 | 91.5
3 | Cc1cc2cc(n1)-c1cnn(C)c1OC[C@H]1C[C@@H](CN3/C(=N/C2=O)Nc2ccc(N4CCN(C5CCN(c6ccc(C7CCC(=O)NC7=O)nc6C)CC5)CC4=O)cc23)C1 (stereo partly shown) [Example 22, 3-(5-(4-(4-((7^1s,7^3s,E)-1^1,2^6-dimethyl-3-oxo-5^2,5^3-dihydro-1^1H,5^1H-9-oxa-4-aza-5(2,1)-benzo[d]imidazola-2(2,4)-pyridina-1(4,5)-pyrazola-7(1,3)-cyclobutanacyclononaphane-5^6-yl)-3-oxopiperazin-1-yl)piperidin-1-yl)-6-methylpyridin-2-yl)piperidine-2,6-dione] | 91.7 | 89.5
4 | COC[C@H]1CN(c2ccc3c(c2)N2C[C@H]4C[C@@H](COc5c(cnn5C)-c5cc(cc(C)n5)C(=O)/N=C/2N3)C4)CCN1C1CCN(c2cnc(C3CCC(=O)NC3=O)cc2C)CC1 (stereo partly drawn) [Example 23, 3-(5-(4-((R)-4-((7^1s,7^3S,E)-1^1,2^6-dimethyl-3-oxo-5^2,5^3-dihydro-1^1H,5^1H-9-oxa-4-aza-5(2,1)-benzo[d]imidazola-2(2,4)-pyridina-1(4,5)-pyrazola-7(1,3)-cyclobutanacyclononaphane-5^6-yl)-2-(methoxymethyl)piperazin-1-yl)piperidin-1-yl)-4-methylpyridin-2-yl)piperidine-2,6-dione] | 91.3 | 87.0
5 | COC[C@H]1CN(c2ccc3c(c2)N2C[C@H]4C[C@@H](COc5c(cnn5C)-c5cc(cc(C)n5)C(=O)/N=C/2N3)C4)CCN1C1CCN(c2ccc(C3CCC(=O)NC3=O)nc2C)CC1 (stereo partly drawn) [Example 24, 3-(5-(4-((R)-4-((7^1s,7^3S,E)-1^1,2^6-dimethyl-3-oxo-5^2,5^3-dihydro-1^1H,5^1H-9-oxa-4-aza-5(2,1)-benzo[d]imidazola-2(2,4)-pyridina-1(4,5)-pyrazola-7(1,3)-cyclobutanacyclononaphane-5^6-yl)-2-(methoxymethyl)piperazin-1-yl)piperidin-1-yl)-6-methylpyridin-2-yl)piperidine-2,6-dione] | 91.7 | 88.0
6 | Cc1cc2cc(n1)-c1cnn(C)c1OC[C@H]1C[C@@H](CN3/C(=N/C2=O)Nc2ccc(N4CCN(C5CCN(c6cc(F)c([C@H]7CCC(=O)NC7=O)c(F)c6)CC5)C(=O)C4)cc23)C1 [Example 25, (R)-3-(4-(4-(4-((7^1s,7^3s,E)-1^1,2^6-dimethyl-3-oxo-5^2,5^3-dihydro-1^1H,5^1H-9-oxa-4-aza-5(2,1)-benzo[d]imidazola-2(2,4)-pyridina-1(4,5)-pyrazola-7(1,3)-cyclobutanacyclononaphane-5^6-yl)-2-oxopiperazin-1-yl)piperidin-1-yl)-2,6-difluorophenyl)piperine-2,6-dione] | 83.4 | 89.9

Continued, values first:

Row | Degradation H1975 # 25-LTC [1] | Degradation H1975 # 28 DTC [2] | SMILES
7 | 92.1 | 90.8 | Cc1cc2cc(n1)-c1cnn(C)c1OC[C@H]1C[C@@H](CN3/C(=N/C2=O)Nc2ccc(N4CCN(C5CCN(c6ccc(C7CCC(=O)NC7=O)nc6C)CC5)C(=O)C4)cc23)C1 (stereo partly shown) [Example 26, 3-(5-(4-(4-((7^1s,7^3s,E)-1^1,2^6-dimethyl-3-oxo-5^2,5^3-dihydro-1^1H,5^1H-9-oxa-4-aza-5(2,1)-benzo[d]imidazola-2(2,4)-pyridina-1(4,5)-pyrazola-7(1,3)-cyclobutanacyclononaphane-5^6-yl)-2-oxopiperazin-1-yl)piperidin-1-yl)-6-methylpyridin-2-yl)piperidine-2,6-dione]
8 | 89.6 | 84.7 | COC[C@H]1CN(c2ccc3c(c2)N2C[C@H]4C[C@@H](COc5c(cnn5C)-c5cc(cc(C)n5)C(=O)/N=C/2N3)C4)CCN1C1CCN(c2cc(F)c([C@H]3CCC(=O)NC3=O)c(F)c2)CC1 [Example 27, (R)-3-(4-(4-((R)-4-((7^1s,7^3S,E)-1^1,2^6-dimethyl-3-oxo-5^2,5^3-dihydro-1^1H,5^1H-9-oxa-4-aza-5(2,1)-benzo[d]imidazola-2(2,4)-pyridina-1(4,5)-pyrazola-7(1,3)-cyclobutanacyclononaphane-5^6-yl)-2-(methoxymethyl)piperazin-1-yl)piperidin-1-yl)-2,6-difluorophenyl)piperidine-2,6-dione]
9 | 92.1 | 79.8 | Cc1cc2cc(n1)-c1cnn(C)c1OC[C@H]1C[C@@H](CN3/C(=N/C2=O)Nc2ccc(N4CCC(N5CCN(c6ccc(C7CCC(=O)NC7=O)nc6C)CC5)CC4)cc23)C1 (stereo partly shown) [Example 28, 3-(5-(4-(1-((7^1s,7^3s,E)-1^1,2^6-dimethyl-3-oxo-5^2,5^3-dihydro-1^1H,5^1H-9-oxa-4-aza-5(2,1)-benzo[d]imidazola-2(2,4)-pyridina-1(4,5)-pyrazola-7(1,3)-cyclobutanacyclononaphane-5^6-yl)piperidin-4-yl)piperazin-1-yl)-6-methylpyridin-2-yl)piperidine-2,6-dione]
10 | 42.6 | 78.3 | Cc1cc2cc(n1)-c1cnn(C)c1OC[C@H]1C[C@@H](CN3/C(=N/C2=O)Nc2ccc(N4CCN(C5CN(c6cc(F)c([C@H]7CCC(=O)NC7=O)c(F)c6)C5)CC4)cc23)C1 [Example 29, (R)-3-(4-(3-(4-((7^1s,7^3s,E)-1^1,2^6-dimethyl-3-oxo-5^2,5^3-dihydro-1^1H,5^1H-9-oxa-4-aza-5(2,1)-benzo[d]imidazola-2(2,4)-pyridina-1(4,5)-pyrazola-7(1,3)-cyclobutanacyclononaphane-5^6-yl)piperazin-1-yl)azetidin-1-yl)-2,6-difluorophenyl)piperidine-2,6-dione]
11 | 90.3 | 84.4 | Cc1cc2cc(n1)-c1cnn(C)c1OC[C@H]1C[C@@H](CN3/C(=N/C2=O)Nc2ccc(N4CCN(C5CCN(c6cc(F)c([C@H]7CCC(=O)NC7=O)c(F)c6)CC5)[C@H](CO)C4)cc23)C1 [Example 30, (R)-3-(4-(4-((S)-4-((7^1s,7^3R,E)-1^1,2^6-dimethyl-3-oxo-5^2,5^3-dihydro-1^1H,5^1H-9-oxa-4-aza-5(2,1)-benzo[d]imidazola-2(2,4)-pyridina-1(4,5)-pyrazola-7(1,3)-cyclobutanacyclononaphane-5^6-yl)-2-(hydroxymethyl)piperazin-1-yl)piperidin-1-yl)-2,6-difluorophenyl)piperidine-2,6-dione]
